# Earlier results in patent publication EP0073093A1, “4' Halo-substituted sucrose derivatives” (TATE & LYLE PUBLIC LIMITED COMPANY, priority 1981, dated 1983).
# Columns and labels:
# [1] = qualitative
compound,measurement,setting,value
"2,1'-dichloro-2,1'- dideoxy derivative",sweetness,"qualitative, prior-art sucrose derivatives",not sweet at all
"2,6,1',6'-tetrachloro-2,6,1', 6'-tetradeoxy derivative",bittering power,[1]; comparable with that of quinine,potent bittering agent
O=C1NS(=O)(=O)c2ccccc21 [saccharin],times the sweetening power of sucrose,relative to sucrose,about 200 times
same,after-taste,[1],unpleasantly bitter after-taste
